The first data set can be described thus: Metabolic stability in monkey liver microsomes assessed as compound remaining after 120 mins by HPLC. The data set is classed as ADME, Macaca mulatta, Microsome. To be noted: rhesus monkey, read-out: Activity. (In general: Liver microsomes are vesicles of endoplasmic reticulum, rich in cytochrome P450 enzymes.)
With `Cc1ncc2n1C(=O)N(C1CCN(C(=O)CCS(=O)(=O)c3ccc4cc(Cl)ccc4c3)CC1)C2`, the remaining at 2 h was determined as 99.9%.

A further data set in a line: Octanol-water partition coefficient, log D at pH 7.4.
Details: not given
The data set is classed as physicochemical.
In general, logD refers to the decadic logarithm of the distribution of all forms, ionised or not, between an organic phase and buffer at a given pH. `O=C([C@H](O)CS(=O)(=O)c1ccc2cc(Cl)ccc2c1)N1CCC(N2NCCCC2=O)CC1` registered a logD of 1.85.

Regarding `Cc1ncc2n1C(=O)N(C1CCN(C(=O)[C@H](O)CS(=O)(=O)c3ccc4cc(Cl)ccc4c3)CC1)C2`, the pH-dependent lipophilicity (logD) amounted to 2.13.

Consider `O=C([C@H](O)CS(=O)(=O)c1ccc2cc(Cl)ccc2c1)N1CCC(N2CCCCCC2=O)CC1`, for which the logD worked out at 2.52.

As for `O=C([C@H](O)CS(=O)(=O)c1ccc2cc(Cl)ccc2c1)N1CCC(N2CCCNC2=O)CC1` [LETAXABAN], the logD worked out at 1.81.

In turn, `O=C([C@H](O)CS(=O)(=O)c1ccc2cc(Cl)ccc2c1)N1CCC(N2CCCCC2=O)CC1` displayed a log distribution coefficient (logD) of 2.19.

In turn, `O=C([C@H](O)CS(=O)(=O)c1ccc2cc(Cl)ccc2c1)N1CCC(N2CCCC2)CC1` gave a log distribution coefficient (logD) of 1.56.

In turn, `O=C([C@H](O)CS(=O)(=O)c1ccc2cc(Cl)ccc2c1)N1CCC(N2C[C@@H]3CCCN3C2=O)CC1` showed a logD of 2.16.

In turn, `O=C([C@H](O)CS(=O)(=O)c1ccc2cc(Cl)ccc2c1)N1CCC(N2CCOCC2=O)CC1` gave a log distribution coefficient (logD) of 1.85.

Consider `O=C([C@H](O)CS(=O)(=O)c1ccc2cc(Cl)ccc2c1)N1CCC(N2CCCS2(=O)=O)CC1`, for which the log distribution coefficient (logD) is 1.69.

For `O=C([C@H](O)CS(=O)(=O)c1ccc2cc(Cl)ccc2c1)N1CCC(N2CCOC2=O)CC1`, the logD came to 1.75.

Consider `O=C([C@H](O)CS(=O)(=O)c1ccc2cc(Cl)ccc2c1)N1CCC(n2cc[nH]c2=O)CC1`, for which the logD is 1.79.

Turning to `O=C([C@H](O)CS(=O)(=O)c1ccc2cc(Cl)ccc2c1)N1CCC(N2C[C@H]3CCCN3C2=O)CC1`, the logD was determined as 2.16.

On to `O=C([C@H](O)CS(=O)(=O)c1ccc2cc(Cl)ccc2c1)N1CCC(N2CCCOC2=O)CC1`, for which the log distribution coefficient (logD) was found to be 1.67.

Compound `O=C([C@H](O)CS(=O)(=O)c1ccc2cc(Cl)ccc2c1)N1CCC(N2CCNC2=O)CC1` came in with a logD of 1.73.

`O=C([C@H](O)CS(=O)(=O)c1ccc2cc(Cl)ccc2c1)N1CCC(N2CCCC2=O)CC1`: the logD came to 1.96.

`O=C([C@H](O)CS(=O)(=O)c1ccc2cc(Cl)ccc2c1)N1CCC(N2Cc3cccn3C2=O)CC1` registered a logD of 2.6.

`O=C([C@H](O)CS(=O)(=O)c1ccc2cc(Cl)ccc2c1)N1CCC(N2Cc3ccccc3C2=O)CC1` registered a logD of 2.58.

The nature of another data set: Metabolic stability in human liver microsomes assessed as compound remaining after 120 mins by HPLC. The data set is classed as ADME, Microsome. The conditions noted are these: read-out: Activity.
Consider `Cc1ncc2n1C(=O)N(C1CCN(C(=O)CCS(=O)(=O)c3ccc4cc(Cl)ccc4c3)CC1)C2`, for which the remaining at 2 h was determined as 70.5%.

The values are drawn from ChEMBL document CHEMBL1157901, “Discovery of a tetrahydropyrimidin-2(1H)-one derivative (TAK-442) as a potent, selective, and orally active factor Xa inhibitor” (J Med Chem, 2010).
